# Experimental data taken from publication PMC7733796 (Proceedings of the National Academy of Sciences of the …, 2020).
# Non-standard residues stand in square brackets, D forms with d. Residues, ends and D or L forms follow the SMILES beside them.
# Key:
# [1] = molecular target: T1, CXCR4 (Homo sapiens, UniProt P61073); conditions: hNSCs preincubated with 10 µM, osmotic pump 24-72 h, analysis 3 d posttransplant
# [2] = molecular target: T1, CXCR4; experiment: Ca2+ mobilization; type: cell-based; conditions: Sup-T1 cells; for Ca2+ efflux (signaling) with increasing concentrations: Fura-2/AM ratiometric, plate reader, DV1 tested up to 40 µM
# [3] = molecular target: T1, CXCR4; experiment: Single-cell [Ca2+]i; type: cell-based; conditions: SDV1a 10 µM; at least 11 cells per condition
# [4] = tested on: hNSCs; experiment: Boyden chamber transmigration assay, hNSCs; type: cell-based, human; conditions: hNSCs 1x10^5, 8-µm fibronectin-coated transwell, 5 h
# [5] = tested on: hNSCs; experiment: CyQuant proliferation assay, hNSCs; type: cell-based, human; conditions: SDV1a 10 nM, 72 h
# [6] = tested on: ERK1/2, p38-MAPK, IκBα; experiment: Western blot of phosphorylation downstream of CXCR4 in hNSCs; type: cell-based, human; conditions: hNSC lysates
# [7] = molecular target: T1, CXCR4; experiment: Receptor endocytosis analysis; type: cell-based; conditions: hNSCs, ligand 4 µg/mL, 37°C
# [8] = tested on: hNSCs; experiment: Microarray gene expression and gene ontology analysis of hNSCs; type: cell-based, human; conditions: hNSCs vs non-treated control
# [9] = Persistence and pharmacokinetics in mouse brain; type: in vivo
# [10] = tested on: activated M1 microglia; experiment: Microgliosis and safety after intracerebral injection in adult mice; type: in vivo, mouse; conditions: for CD11b+ cells (activated M1 microglia): adult mouse brain after injection, n = 3 mice per condition
# [11] = tested on: Sandhoff disease (Hexβ−/−) mice; experiment: Sandhoff disease; type: in vivo, mouse
# [12] = tested on: transplanted hNSCs; type: in vivo, mouse; conditions: adult C57BL/6J mice, 2 µl injected into cortex or hippocampus, n=3 per group
# [13] = tested on: Sup-T1 cells; experiment: Boyden chamber chemotaxis assay, Sup-T1 cells; type: cell-based, human; conditions: peptide in lower chamber at titrated concentrations, 37°C 2 h
# [14] = 4-mo-old mice, hiPSC-hNSCs + SDV1a, n = 6
# T1 sequence (P61073 whole entry): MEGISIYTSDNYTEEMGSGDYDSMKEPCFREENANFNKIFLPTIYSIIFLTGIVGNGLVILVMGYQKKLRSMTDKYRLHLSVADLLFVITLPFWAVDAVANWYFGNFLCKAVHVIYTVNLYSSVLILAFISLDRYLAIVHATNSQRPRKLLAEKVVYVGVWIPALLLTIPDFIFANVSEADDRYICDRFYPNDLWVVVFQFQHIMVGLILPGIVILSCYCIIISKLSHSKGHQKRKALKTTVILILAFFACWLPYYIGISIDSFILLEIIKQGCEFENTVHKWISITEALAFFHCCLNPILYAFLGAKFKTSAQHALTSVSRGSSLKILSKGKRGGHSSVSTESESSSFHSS
compound,measurement,setting,value
c1cc(CN2CCCNCCNCCCNCC2)ccc1CN1CCCNCCNCCCNCC1 [AMD3100],Effect of CXCR4 inhibition on hNSC migration to SDV1a,[1],abrogated
"CC(C)C[C@H](NC(=O)[C@H](CO)NC(=O)[C@@H](NC(=O)[C@@H]1CCCN1C(=O)[C@@H](N)CCCCN)C(C)C)C(=O)N[C@@H](CO)C(=O)N[C@@H](Cc1ccc(O)cc1)C(=O)N[C@@H](CCCNC(=N)N)C(=O)NCC(=O)NCC(=O)N[C@H](CC(C)C)C(=O)NCC(=O)N[C@H](C)C(=O)N[C@H](CO)C(=O)N[C@H](Cc1c[nH]c2ccccc12)C(=O)N[C@H](Cc1c[nH]cn1)C(=O)N[C@H](CCCNC(=N)N)C(=O)N1CCC[C@@H]1C(=O)N[C@H](CC(=O)O)C(=O)N[C@H](CCCCN)C(=O)N[C@H](CS)C(=O)N[C@H](CS)C(=O)N[C@H](CC(C)C)C(=O)NCC(=O)N[C@H](Cc1ccc(O)cc1)C(=O)N[C@H](CCC(N)=O)C(=O)N[C@H](CCCCN)C(=O)N[C@H](CCCNC(=N)N)C(=O)N1CCC[C@@H]1C(=O)N[C@H](CC(C)C)C(=O)N1CCC[C@@H]1C(N)=O [SDV1a, L-(1∼8)-SDF1α-GG-D-(1∼21)-vMIP-II] (H-KPVSLSYRGG[dL]G[dA][dS][dW][dH][dR][dP][dD][dK][dC][dC][dL]G[dY][dQ][dK][dR][dP][dL][dP]-NH2; N-terminus assumed)",Signaling intensity (Ca2+ release) relative to CXCL12/SDF1α,[2]; Fura-2/AM,an order-of-magnitude less
same,Change of [Ca2+]i in single hNSCs,[3],increased [Ca^2+]i
same,Concentration at which hNSC chemotaxis peaks (bell-shaped dose-response),[4],5 nM
same,Increase in total DNA content compared to untreated controls,[5],10%
same,Phosphorylation of p38-MAPK (Thr180/Tyr182) and IκBα (Ser-32/36),[6],phosphorylated
same,Time to down-regulation of CXCR4 surface expression,[7],90 min
same,Gene ontology profile induced in hNSCs,[8],"primarily induced genes associated with developmental, homeostatic, and stem cell-related functions"
same,Persistence in brain after injection,"[9]; FITC- or biotin-tagged SDV1a, adult mouse brain",3 wk
same,Time to dissemination throughout the regions,"[9]; postinjection, C57BL/6J mice, HPLC-MS/MS",≤ 30 min
same,CD11b+ cells (activated M1 microglia),[10],1.1 ± 1.0 per 0.4 mm^2
same,"Systemic or CNS toxicity, behavior",[10]; mice after intracerebral injection,no evidence of systemic or CNS toxicity or altered behavior
same,GM2 ganglioside storage in cortex,[11]; [14],little GM2 accumulation occurred
same,Microgliosis (Iba1) in cortex where donor cells engrafted,[11]; [14],scant
same,Hex enzyme levels in CNS parenchyma,"[11]; hiPSC-hNSC+SDV1a, regions where donor cells were attracted",raised beyond the critical 3 to 5% therapeutic threshold
C-X-C motif chemokine ligand-12 [CXCL12],Ca2+ efflux (signaling) with increasing concentrations,[2],produced the most intense signaling
same,Concentration at which hNSC chemotaxis peaks (bell-shaped dose-response),[4],0.5 nM
same,Time after which cell surface CXCR4 starts to rebound,[7],> 45 min
same,Time to down-regulation of CXCR4 surface expression,[7],≤ 10 min
same,Gene ontology profile induced in hNSCs,[8],up-regulation of inflammatory and immune-related processes
same,Attraction of hNSCs transplanted into the contralateral hippocampus,[12],drew no hNSCs
same,Time by which undetectable in brain after administration,"[9]; similarly labeled recombinant CXCL12, adult mouse brain",≤ 2 days
same,Persistence of microgliosis postinjection,[10]; adult mouse brain,2 wk
same,CD11b+ cells (activated M1 microglia),[10],11.7 ± 2.8 per 0.4 mm^2
D-(1~21)-vMIP-II [DV1],Ca2+ efflux (signaling) with increasing concentrations,[2],evoked no signaling
same,Chemotaxis of Sup-T1 cells (upper to lower chamber),[13],elicited no chemotaxis
"L-(1~8)-SDF1a (KPVSLSYR; UniProt P48061 22-29, looked up, fragment) [S1]",Chemotaxis of Sup-T1 cells (upper to lower chamber),[13],elicited no chemotaxis
